Where two headings read alike, the source gives them in different places. *1 amine or outer side, *2 acyl side, *3 side chain or, on linkers, in order; H or OH if unused. Where a SMILES comes first, the peptide text is derived from it. Bridges are numbered along the chain shown (N, C = ends). [ ]: non-standard residue; d: D form. ξ: configuration not given here. Trp(1-CH2COOH) = N[C@@H](Cc1cn(CC(=O)O)c2ccccc12)C(=O)O; Phe(3,4,5-F3) = N[C@@H](Cc1cc(F)c(F)c(F)c1)C(=O)O; Phe(3,4-F2) = N[C@@H](Cc1ccc(F)c(F)c1)C(=O)O; Morpholine(3S-CO) = O=C(O)[C@@H]1COCCN1; d(cisHyp) = O=C(O)[C@H]1C[C@@H](O)CN1; Hyp = O=C(O)[C@@H]1C[C@@H](O)CN1; NMeF = CN[C@@H](Cc1ccccc1)C(=O)O; X1 = O=C([C@H]1COCCN1[*:1])[*:2]; αMeF = C[C@](N)(Cc1ccccc1)C(=O)O; 3Pal = N[C@@H](Cc1cccnc1)C(=O)O; dHyp = O=C(O)[C@H]1C[C@H](O)CN1; NMeNle = CCCC[C@H](NC)C(=O)O; dPip = O=C(O)[C@H]1CCCCN1; hSer = N[C@@H](CCO)C(=O)O; NMeA = CN[C@@H](C)C(=O)O; Orn = NCCC[C@H](N)C(=O)O; dThz = O=C(O)[C@H]1CSCN1; Dab = NCC[C@H](N)C(=O)O; Dap = NC[C@H](N)C(=O)O; ξC = NC(CS)C(=O)O; Sar = CNCC(=O)O

The values below come from patent publication US10538555B2, “Macrocyclic inhibitors of the PD-1/PD-L1 and CD80(B7-1)/PD-L1 protein/protein interactions” (BRISTOL-MYERS SQUIBB COMPANY, priority 2014, dated 2020).

The target of this assay is T1, Human PD-L1/PD-1 (Homo sapiens, UniProt Q9NZQ7).
T1 construct: TVMV protease cleavage site (C); made in house; host or cells: HEK293T cells
T1 sequence (Q9NZQ7 with tags, fused parts or gaps): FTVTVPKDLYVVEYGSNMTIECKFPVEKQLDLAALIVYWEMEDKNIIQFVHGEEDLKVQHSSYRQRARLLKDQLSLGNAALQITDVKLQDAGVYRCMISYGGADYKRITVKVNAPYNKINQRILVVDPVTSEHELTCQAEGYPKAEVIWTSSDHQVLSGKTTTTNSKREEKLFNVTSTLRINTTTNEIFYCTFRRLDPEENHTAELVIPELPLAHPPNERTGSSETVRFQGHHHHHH
Nature of the assay: HTRF Human PD-L1/PD-1 binding assay (PD-1-Ig/PD-L1-His). Conditions: PD-L1-His 10 nM, PD-1-Ig 20 nM. A digest of the protocol: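 Inhibitors were preincubated 15 min with human PD-L1(18-239)-His (10 nM final), then PD-1(25-167)-Ig (20 nM final) was added for 15 min in dPBS/0.1% BSA/0.05% Tween-20. Eu-cryptate anti-Ig (1 nM) and APC anti-His (20 nM) were added; 665/620 nm ratio read after 30 min.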

The mark [1] stands for this setting: class symbol, read-out: HTRF Human PD-L1/PD-1 Binding Assay IC50 Range.

For the compound `CCCC[C@H]1C(=O)N(C)[C@@H](CCCC)C(=O)N[C@@H](CCC(=O)O)C(=O)N[C@H](C(=O)NCC(N)=O)CSCC(=O)N[C@@H](Cc2ccc(OC)cc2)C(=O)N(C)[C@@H](C)C(=O)N[C@@H](CCN)C(=O)N2CCC[C@H]2C(=O)N[C@@H](CN)C(=O)N[C@@H](CCCCN)C(=O)N2C[C@H](O)C[C@H]2C(=O)N[C@@H](Cc2c[nH]c3ccccc23)C(=O)N[C@@H](CC(=O)O)C(=O)N[C@@H](Cc2c[nH]c3ccccc23)C(=O)N1C` [Example 7116] ({CH2CO}-Y(Me)[NMeA][Dab]P[Dap]K[Hyp]WDW[NMeNle][NMeNle]ECG-NH2; thioether N-14), the IC50 (read-out: HTRF Human PD-L1/PD-1 Binding Assay IC50) worked out at 1000 nM. On to `CCCC[C@H]1C(=O)N2CSC[C@@H]2C(=O)N[C@@H](CN)C(=O)N[C@@H](C(C)C)C(=O)N(C)[C@@H](Cc2ccccc2)C(=O)N[C@@H](Cc2ccc(O)cc2)C(=O)N2CCC[C@@H]2C(=O)N[C@@H](Cc2c[nH]c3ccccc23)C(=O)N[C@@H](Cc2ccc(O)cc2)C(=O)N[C@@H](CC(C)C)C(=O)N[C@H](C(=O)NCC(N)=O)CSCC(=O)N[C@@H](Cc2ccccc2)C(=O)N(C)[C@@H](Cc2ccccc2)C(=O)N1C` [Example 10075] ({CH2CO}-F[NMeF][NMeNle][dThz][Dap]V[NMeF]Y[dP]WYLCG-NH2; thioether N-13), for which, under setting [1], the IC50 was 10 to 99.9 nM. Turning to `CCCC[C@H]1C(=O)N[C@@H](CC(N)=O)C(=O)N2CCC[C@H]2C(=O)N[C@@H](CO)C(=O)N[C@@H](CCO)C(=O)N2C[C@H](O)C[C@H]2C(=O)N[C@@H](Cc2c[nH]c3ccccc23)C(=O)N[C@@H](CCCN)C(=O)N[C@@H](Cc2c[nH]c3ccccc23)C(=O)N(C)[C@@H](C)C(=O)N(C)[C@@H](C)C(=O)N[C@@H](CCCNC(=N)N)C(=O)NC(C(=O)NCC(N)=O)CSCC(=O)N[C@@H](Cc2ccc(O)cc2)C(=O)N1C` (stereo partly drawn) [Example 10201] ({CH2CO}-Y[NMeNle]NPS[hSer][Hyp]W[Orn]W[NMeA][NMeA]R[ξC]G-NH2; thioether N-14), the IC50 under setting [1] is 1000 to 10000 nM. Still for that read-out and setting: then `CCCC[C@H]1C(=O)N2CCC[C@@H]2C(=O)N[C@@H](CC(=O)O)C(=O)N[C@@H](C(C)C)C(=O)N(C)[C@@H](Cc2ccccc2)C(=O)N[C@@H](Cc2ccc(O)cc2)C(=O)N2CSC[C@@H]2C(=O)N[C@@H](Cc2c[nH]c3ccccc23)C(=O)N[C@@H](Cc2ccc(O)cc2)C(=O)N[C@@H](CC(C)C)C(=O)N[C@H](C(=O)NCC(N)=O)CSCC(=O)N[C@@H](Cc2ccccc2)C(=O)N(C)[C@@H](Cc2ccccc2)C(=O)N1C` [Example 10068] ({CH2CO}-F[NMeF][NMeNle][dP]DV[NMeF]Y[dThz]WYLCG-NH2; thioether N-13), with 1 to 9.9 nM. Still for that read-out and setting: then `CCCC[C@H]1C(=O)N(C)[C@@H](CCCC)C(=O)N[C@@H](C)C(=O)N[C@H](C(=O)NCC(N)=O)CSCC(=O)N[C@@H](Cc2ccc(O)cc2)C(=O)N2CCOC[C@H]2C(=O)N[C@@H](CC(=O)O)C(=O)N2CCC[C@H]2C(=O)N[C@@H](Cc2c[nH]cn2)C(=O)N[C@@H](CC(C)C)C(=O)N2C[C@H](O)C[C@H]2C(=O)N[C@@H](Cc2c[nH]c3ccccc23)C(=O)N[C@@H](CO)C(=O)N[C@@H](Cc2c[nH]c3ccccc23)C(=O)N1C` [Example 1525], with 1 to 9.9 nM. On the same count and under the same terms, then `CCCC[C@H]1C(=O)N2C[C@@H](O)C[C@@H]2C(=O)N[C@@H](CC(=O)O)C(=O)N[C@@H](C(C)C)C(=O)N(C)[C@@H](Cc2ccccc2)C(=O)N[C@@H](Cc2ccc(OC)cc2)C(=O)N2C[C@@H](O)C[C@@H]2C(=O)N[C@@H](Cc2c[nH]c3ccccc23)C(=O)N[C@@H](Cc2ccc(O)cc2)C(=O)N[C@@H](CC(C)C)C(=O)N[C@H](C(=O)NCC(N)=O)CSCC(=O)N[C@@H](Cc2ccc(F)c(F)c2)C(=O)N(C)[C@@H](Cc2ccccc2)C(=O)N1C` [Example 9225] ({CH2CO}-[Phe(3,4-F2)][NMeF][NMeNle][dHyp]DV[NMeF]Y(Me)[dHyp]WYLCG-NH2; thioether N-13), with 1 to 9.9 nM. With `CCCC[C@H]1C(=O)N(C)CC(=O)N[C@@H](CC(=O)O)C(=O)N[C@@H](C(C)C)C(=O)N(C)[C@@H](Cc2ccccc2)C(=O)N[C@@H](Cc2ccc(O)cc2)C(=O)N(C)CC(=O)N[C@@H](Cc2c[nH]c3ccccc23)C(=O)N[C@@H](Cc2ccc(O)cc2)C(=O)N[C@@H](CC(C)C)C(=O)N[C@H](C(=O)NCC(N)=O)CSCC(=O)N[C@@H](Cc2cccnc2)C(=O)N(C)[C@@H](Cc2ccccc2)C(=O)N1C` [Example 3243] ({CH2CO}-[3Pal][NMeF][NMeNle][Sar]DV[NMeF]Y[Sar]WYLCG-NH2; thioether N-13), the IC50 under setting [1] was in the range of 10 to 99.9 nM. On the same count and under the same terms, then `CCCC[C@H]1C(=O)N2C[C@H](O)C[C@@H]2C(=O)N[C@@H](CC(=O)O)C(=O)N[C@@H](C(C)C)C(=O)N(C)[C@@H](Cc2ccccc2)C(=O)N[C@@H](Cc2ccc(O)cc2)C(=O)N2CCOC[C@@H]2C(=O)N[C@@H](Cc2c[nH]c3ccccc23)C(=O)N[C@@H](Cc2ccc(OC)cc2)C(=O)N[C@@H](CCOC)C(=O)N[C@H](C(=O)NCC(N)=O)CSCC(=O)N[C@@H](Cc2cc(F)c(F)c(F)c2)C(=O)N(C)[C@@H](Cc2ccccc2)C(=O)N1C` [Example 10179] ({CH2CO}-[Phe(3,4,5-F3)][NMeF][NMeNle][d(cisHyp)]DV[NMeF]Y[X1]WY(Me)[hSer](Me)CG-NH2; thioether N-13), with 10 to 99.9 nM; and `CCCC[C@H]1C(=O)N2C[C@H](O)C[C@@H]2C(=O)N[C@@H](CC(=O)O)C(=O)N[C@@H](C(C)C)C(=O)N(C)[C@@H](Cc2ccccc2)C(=O)N[C@@H](Cc2ccc(O)cc2)C(=O)N2C[C@H](O)C[C@@H]2C(=O)N[C@@H](Cc2c[nH]c3ccccc23)C(=O)N[C@@H](Cc2ccc(O)cc2)C(=O)N[C@@H](CCCCN)C(=O)N[C@H](C(=O)NCC(N)=O)CSCC(=O)N[C@@H](Cc2cc(F)c(F)c(F)c2)C(=O)N(C)[C@@H](Cc2ccccc2)C(=O)N1C` [Example 9322] ({CH2CO}-[Phe(3,4,5-F3)][NMeF][NMeNle][d(cisHyp)]DV[NMeF]Y[d(cisHyp)]WYKCG-NH2; thioether N-13), with 1 to 9.9 nM. Consider `CCCC[C@H]1C(=O)N(C)[C@@H](CCCC)C(=O)N[C@@H](CCC(=O)O)C(=O)N[C@H](C(=O)NCC(N)=O)CSCC(=O)N[C@@H](Cc2ccc(O)cc2)C(=O)N(C)[C@@H](C)C(=O)N[C@@H](CC(=O)O)C(=O)N2CCC[C@H]2C(=O)N[C@@H](CO)C(=O)N[C@@H](CCC(=O)O)C(=O)N2C[C@H](O)C[C@H]2C(=O)N[C@@H](Cc2c[nH]c3ccccc23)C(=O)N[C@@H](CCC(=O)O)C(=O)N[C@@H](Cc2c[nH]c3ccccc23)C(=O)N1C` [Example 5260] ({CH2CO}-Y[NMeA]DPSE[Hyp]WEW[NMeNle][NMeNle]ECG-NH2; thioether N-14), for which the IC50 under setting [1] is 1 to 9.9 nM.

On to `CCCC[C@H]1C(=O)N(C)[C@@H](CCCC)C(=O)N[C@@H](CC(C)C)C(=O)N[C@H](C(=O)NCC(N)=O)CSCC(=O)N[C@@H](Cc2ccc(O)cc2)C(=O)N(C)[C@@H](C)C(=O)N[C@@H](CC(N)=O)C(=O)N[C@H](C)C(=O)N[C@@H](Cc2cnc[nH]2)C(=O)N[C@@H](CCC(N)=O)C(=O)N2C[C@H](O)C[C@H]2C(=O)N[C@@H](Cc2c[nH]c3ccccc23)C(=O)N[C@@H](CO)C(=O)N[C@@H](Cc2c[nH]c3ccccc23)C(=O)N1C` [Example 6262] ({CH2CO}-Y[NMeA]N[dA]HQ[Hyp]WSW[NMeNle][NMeNle]LCG-NH2; thioether N-14), for which, under setting [1], the IC50 lay within 1 to 9.9 nM.

Turning to `CCCC[C@H]1C(=O)N2CCC[C@@H]2C(=O)N[C@@H](CC(=O)O)C(=O)N[C@@H](C(C)C)C(=O)N[C@@](C)(Cc2ccccc2)C(=O)N[C@@H](Cc2ccc(O)cc2)C(=O)N2CCCC[C@@H]2C(=O)N[C@@H](Cc2c[nH]c3ccccc23)C(=O)N[C@@H](Cc2ccc(O)cc2)C(=O)N[C@@H](CC(C)C)C(=O)N[C@H](C(=O)NCC(N)=O)CSCC(=O)N[C@@H](Cc2ccccc2)C(=O)N(C)[C@@H](Cc2ccccc2)C(=O)N1C` [Example 3220] ({CH2CO}-F[NMeF][NMeNle][dP]DV[αMeF]Y[dPip]WYLCG-NH2; thioether N-13), the IC50 under setting [1] was 10 to 99.9 nM. As for `CCCC[C@H]1C(=O)N2CCC[C@@H]2C(=O)N[C@@H](CC(=O)O)C(=O)N[C@@H](C(C)C)C(=O)N(C)[C@@H](Cc2ccccc2)C(=O)N[C@@H](Cc2ccc(O)cc2)C(=O)N2C[C@@H](O)C[C@@H]2C(=O)N[C@@H](Cc2c[nH]c3ccccc23)C(=O)N[C@@H](Cc2ccc(O)cc2)C(=O)N[C@@H](CC(C)C)C(=O)N[C@H](C(=O)NCC(N)=O)CSCC(=O)N[C@@H](Cc2cc(F)c(F)c(F)c2)C(=O)N(C)[C@@H](Cc2ccccc2)C(=O)N1C` [Example 9287] ({CH2CO}-[Phe(3,4,5-F3)][NMeF][NMeNle][dP]DV[NMeF]Y[dHyp]WYLCG-NH2; thioether N-13), under setting [1], the IC50 was 1 to 9.9 nM.

`CCCC[C@H]1C(=O)N(C)[C@@H](CCCC)C(=O)N[C@@H](CCC(=O)O)C(=O)N[C@H](C(=O)NCC(N)=O)CSCC(=O)N[C@@H](Cc2ccc(O)cc2)C(=O)N2CCOC[C@H]2C(=O)N[C@@H](CC(=O)O)C(=O)N2CCC[C@H]2C(=O)N[C@@H](CN)C(=O)N[C@@H](CCC(=O)O)C(=O)N2C[C@H](O)C[C@H]2C(=O)N[C@@H](Cc2c[nH]c3ccccc23)C(=O)N[C@@H](CO)C(=O)N[C@@H](Cc2c[nH]c3ccccc23)C(=O)N1C` [Example 1520] ({CH2CO}-Y[Morpholine(3S-CO)]DP[Dap]E[Hyp]WSW[NMeNle][NMeNle]ECG-NH2; thioether N-14): the IC50 under setting [1] was 1 to 9.9 nM. Same read-out and setting: the figure for `CCCC[C@H]1C(=O)N(C)[C@@H](CCCC)C(=O)N[C@@H](CC(C)C)C(=O)N[C@H](C(=O)NCC(N)=O)CSCC(=O)N[C@@H](Cc2ccc(O)cc2)C(=O)N(C)[C@@H](C)C(=O)N[C@@H](CC(N)=O)C(=O)N2CCC[C@H]2C(=O)N[C@@H](CC(N)=O)C(=O)N[C@@H](CCC(N)=O)C(=O)N2C[C@H](O)C[C@H]2C(=O)N[C@@H](Cc2c[nH]c3ccccc23)C(=O)N[C@@H](CCN)C(=O)N[C@@H](Cc2cn(CC(=O)O)c3ccccc23)C(=O)N1C` [Example 6118] ({CH2CO}-Y[NMeA]NPNQ[Hyp]W[Dab][Trp(1-CH2COOH)][NMeNle][NMeNle]LCG-NH2; thioether N-14) is 1 to 9.9 nM.
